From the supplement of paper PMC4862054

These compounds were tested on BT-549 (assay: normalised response (% of control), CellTiter-Glo; higher = more viable cells (100 = DMSO, 0 = benzethonium chloride kill control)). Settings: incubation time: 72 h.
Summary of the method: (§1)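 Normalised signals at single concentrations make up the values. They come from breast cancer cell lines seeded (20 µl suspension) into 384-well plates with compound at 5 concentrations in 10-fold steps over a compound-specific 10,000-fold range, incubated 72 h, and read for CellTox Green fluorescence then CellTiter-Glo luminescence. Each plate was normalised to 0.1 % DMSO (100) and a positive kill control (0).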

SMILES	normalised response
Cc1cccc(-c2nn3c(c2-c2ccnc4ccc(C(N)=O)cc24)CCC3)n1 [Galunisertib] (0.1 nM)	95.7%
Nc1cccc2c1CN(C1CCC(=O)NC1=O)C2=O (stereo not given) [Lenalidomide] (1 nM)	101%
Nc1cccc2c1CN(C1CCC(=O)NC1=O)C2=O (stereo not given) [Lenalidomide] (10 nM)	101%
C[C@]12O[C@H](C[C@]1(O)CO)n1c3ccccc3c3c4c(c5c6ccccc6n2c5c31)CNC4=O [Lestaurtinib] (0.1 nM)	98.4%
O=C1c2c(O)ccc(O)c2C(=O)c2c(NCCNCCO)ccc(NCCNCCO)c21 [Mitoxantrone] (0.1 nM)	99.3%
O=C1c2c(O)ccc(O)c2C(=O)c2c(NCCNCCO)ccc(NCCNCCO)c21 [Mitoxantrone] (1 nM)	91.3%
Nc1ccccc1NC(=O)c1ccc(CNc2nccc(-c3cccnc3)n2)cc1 [Mocetinostat] (1 nM)	98.5%
COc1nc(N)nc2c1ncn2[C@@H]1O[C@H](CO)[C@@H](O)[C@@H]1O [Nelarabine] (1 nM)	102%
COc1nc(N)nc2c1ncn2[C@@H]1O[C@H](CO)[C@@H](O)[C@@H]1O [Nelarabine] (10 nM)	99.5%
Cc1ccc(Nc2nccc(N(C)c3ccc4c(C)n(C)nc4c3)n2)cc1S(N)(=O)=O [Pazopanib] (1 nM)	104%
CS(=O)(=O)N1CCN(Cc2cc3nc(-c4cccc5[nH]ncc45)nc(N4CCOCC4)c3s2)CC1 [Pictilisib] (10 nM)	95.7%
O=C(NC[C@H](O)CO)c1ccncc1Nc1ccc(I)cc1F [Pimasertib] (1 nM)	100%
O=C(CCBr)N1CCN(C(=O)CCBr)CC1 [Pipobroman] (1 nM)	105%
O=C(CCBr)N1CCN(C(=O)CCBr)CC1 [Pipobroman] (10 nM)	101%
c1cc(CN2CCCNCCNCCCNCC2)ccc1CN1CCCNCCNCCCNCC1 [Plerixafor] (1 nM)	105%
C[C@]12C=CC(=O)C=C1CC[C@@H]1[C@@H]2[C@@H](O)C[C@@]2(C)[C@H]1CC[C@]2(O)C(=O)CO [Prednisolone] (1 nM)	112%
C[C@]12C=CC(=O)C=C1CC[C@@H]1[C@@H]2[C@@H](O)C[C@@]2(C)[C@H]1CC[C@]2(O)C(=O)CO [Prednisolone] (10 nM)	99.8%
Cn1cc(CNCC2CCN(c3ncc(C(=O)NO)cn3)CC2)c2ccccc21 [Quisinostat] (0.1 nM)	99.8%
Cn1cc(CNCC2CCN(c3ncc(C(=O)NO)cn3)CC2)c2ccccc21 [Quisinostat] (1 nM)	97.8%

The compounds below were run on Hs578T in the same assay as above. Settings: incubation time: 72 h.
Summary of the method: as §1

SMILES	normalised response
Cc1c(CN2CCN(C(=O)[C@H](C)O)CC2)sc2c(N3CCOCC3)nc(-c3cnc(N)nc3)nc12 [GDC-0980] (1 nM)	103%
Cc1c(CN2CCN(C(=O)[C@H](C)O)CC2)sc2c(N3CCOCC3)nc(-c3cnc(N)nc3)nc12 [GDC-0980] (10 nM)	98.3%
Cc1cccc(-c2nn3c(c2-c2ccnc4ccc(C(N)=O)cc24)CCC3)n1 [Galunisertib] (0.1 nM)	110%
Nc1cccc2c1CN(C1CCC(=O)NC1=O)C2=O (stereo not given) [Lenalidomide] (1 nM)	97.1%
Nc1cccc2c1CN(C1CCC(=O)NC1=O)C2=O (stereo not given) [Lenalidomide] (10 nM)	97.1%
C[C@]12O[C@H](C[C@]1(O)CO)n1c3ccccc3c3c4c(c5c6ccccc6n2c5c31)CNC4=O [Lestaurtinib] (0.1 nM)	97.8%
O=C1c2c(O)ccc(O)c2C(=O)c2c(NCCNCCO)ccc(NCCNCCO)c21 [Mitoxantrone] (0.1 nM)	96.9%
O=C1c2c(O)ccc(O)c2C(=O)c2c(NCCNCCO)ccc(NCCNCCO)c21 [Mitoxantrone] (1 nM)	102%
Nc1ccccc1NC(=O)c1ccc(CNc2nccc(-c3cccnc3)n2)cc1 [Mocetinostat] (1 nM)	99.3%
COc1nc(N)nc2c1ncn2[C@@H]1O[C@H](CO)[C@@H](O)[C@@H]1O [Nelarabine] (1 nM)	94.8%
COc1nc(N)nc2c1ncn2[C@@H]1O[C@H](CO)[C@@H](O)[C@@H]1O [Nelarabine] (10 nM)	96.5%
Cc1ccc(Nc2nccc(N(C)c3ccc4c(C)n(C)nc4c3)n2)cc1S(N)(=O)=O [Pazopanib] (1 nM)	99.8%
CS(=O)(=O)N1CCN(Cc2cc3nc(-c4cccc5[nH]ncc45)nc(N4CCOCC4)c3s2)CC1 [Pictilisib] (10 nM)	96.3%
O=C(NC[C@H](O)CO)c1ccncc1Nc1ccc(I)cc1F [Pimasertib] (1 nM)	97.2%
O=C(CCBr)N1CCN(C(=O)CCBr)CC1 [Pipobroman] (1 nM)	102%
O=C(CCBr)N1CCN(C(=O)CCBr)CC1 [Pipobroman] (10 nM)	101%
c1cc(CN2CCCNCCNCCCNCC2)ccc1CN1CCCNCCNCCCNCC1 [Plerixafor] (1 nM)	98.2%
C[C@]12C=CC(=O)C=C1CC[C@@H]1[C@@H]2[C@@H](O)C[C@@]2(C)[C@H]1CC[C@]2(O)C(=O)CO [Prednisolone] (1 nM)	102%
C[C@]12C=CC(=O)C=C1CC[C@@H]1[C@@H]2[C@@H](O)C[C@@]2(C)[C@H]1CC[C@]2(O)C(=O)CO [Prednisolone] (10 nM)	101%
Cn1cc(CNCC2CCN(c3ncc(C(=O)NO)cn3)CC2)c2ccccc21 [Quisinostat] (0.1 nM)	96.5%
Cn1cc(CNCC2CCN(c3ncc(C(=O)NO)cn3)CC2)c2ccccc21 [Quisinostat] (1 nM)	96.8%

The compounds below were run on MDA-MB-231 in the same assay as above. Settings: incubation time: 72 h.
Summary of the method: as §1

SMILES	normalised response
Cc1c(CN2CCN(C(=O)[C@H](C)O)CC2)sc2c(N3CCOCC3)nc(-c3cnc(N)nc3)nc12 [GDC-0980] (1 nM)	109%
Cc1c(CN2CCN(C(=O)[C@H](C)O)CC2)sc2c(N3CCOCC3)nc(-c3cnc(N)nc3)nc12 [GDC-0980] (10 nM)	107%
Cc1cccc(-c2nn3c(c2-c2ccnc4ccc(C(N)=O)cc24)CCC3)n1 [Galunisertib] (0.1 nM)	100%
Nc1cccc2c1CN(C1CCC(=O)NC1=O)C2=O (stereo not given) [Lenalidomide] (1 nM)	98.4%
Nc1cccc2c1CN(C1CCC(=O)NC1=O)C2=O (stereo not given) [Lenalidomide] (10 nM)	97.8%
C[C@]12O[C@H](C[C@]1(O)CO)n1c3ccccc3c3c4c(c5c6ccccc6n2c5c31)CNC4=O [Lestaurtinib] (0.1 nM)	102%
O=C1c2c(O)ccc(O)c2C(=O)c2c(NCCNCCO)ccc(NCCNCCO)c21 [Mitoxantrone] (0.1 nM)	98.9%
O=C1c2c(O)ccc(O)c2C(=O)c2c(NCCNCCO)ccc(NCCNCCO)c21 [Mitoxantrone] (1 nM)	100%
Nc1ccccc1NC(=O)c1ccc(CNc2nccc(-c3cccnc3)n2)cc1 [Mocetinostat] (1 nM)	103%
COc1nc(N)nc2c1ncn2[C@@H]1O[C@H](CO)[C@@H](O)[C@@H]1O [Nelarabine] (1 nM)	98.1%
